Counter-ions that a name gives are not always drawn. Like-named read-outs stand apart in the source and are kept apart here.
Biological target: T1, human histamine H3 receptor (Homo sapiens, UniProt Q9Y5N1)
T1 construct: One microgram of supercoiled H3 receptor cDNA was added to the cells and mixed; expressed in transfected cells; membranes prepared from cell pellets
Assay: {3H}-N-methylhistamine binding
Method: Transfection of Cells with Human Histamine Receptor
A 10 cm tissue culture dish with a confluent monolayer of SK-N-MC cells was split two days prior to transfection. Using sterile technique the media was removed and the cells were detached from the dish by the addition of trypsin. One fifth of the cells were then placed onto a new 10 cm dish. Cells were grown in a 37° C. incubator with 5% CO2 in Minimal Essential Media Eagle with 10%. Fetal Bovine Serum. After two days cells were approximately 80% confluent. These were removed from the dish with trypsin and pelleted in a clinical centrifuge. The pellet was then re-suspended in 400 μL complete media and transferred to an electroporation cuvette with a 0.4 cm gap between the electrodes. One microgram of supercoiled H3 receptor cDNA was added to the cells and mixed. The voltage for the electroporation was set at 0.25 kV, the capacitance was set at 960 μF. After electroporation the cells were diluted into 10 mL complete media and plated onto four 10 cm dishes. Because of the variability in the efficiency of electroporation, four different concentrations of cells were plated. The ratios used were; 1:20, 1:10, 1:5, with the remainder of the cells being added to the fourth dish. […] After 10 days dishes were analyzed for surviving colonies of cells. Dishes with well-isolated colonies were used. Cells from individual colonies were isolated and tested. SK-N-MC cells were used because they give efficient coupling for inhibition of adenylate cyclase. The clones that gave the most robust inhibition of adenylate cyclase in response to histamine were used for further study.
{^3H}-N-methylhistamine Binding
Cell pellets from histamine H3 receptor-expressing SK-N-MC cells were homogenized in 20 mM TrisHCl/0.5 mM EDTA. Supernatants from an 800 g spin were collected, recentrifuged at 30,000 g for 30 min. Pellets were re-homogenized in 50 mM Tris/5 mM EDTA (pH 7.4). […] Filters were dried, added to 4 mL scintillation cocktail and then counted on a liquid scintillation counter. Non-specific binding was defined with 10 μM histamine.

T1 sequence (Q9Y5N1 whole entry): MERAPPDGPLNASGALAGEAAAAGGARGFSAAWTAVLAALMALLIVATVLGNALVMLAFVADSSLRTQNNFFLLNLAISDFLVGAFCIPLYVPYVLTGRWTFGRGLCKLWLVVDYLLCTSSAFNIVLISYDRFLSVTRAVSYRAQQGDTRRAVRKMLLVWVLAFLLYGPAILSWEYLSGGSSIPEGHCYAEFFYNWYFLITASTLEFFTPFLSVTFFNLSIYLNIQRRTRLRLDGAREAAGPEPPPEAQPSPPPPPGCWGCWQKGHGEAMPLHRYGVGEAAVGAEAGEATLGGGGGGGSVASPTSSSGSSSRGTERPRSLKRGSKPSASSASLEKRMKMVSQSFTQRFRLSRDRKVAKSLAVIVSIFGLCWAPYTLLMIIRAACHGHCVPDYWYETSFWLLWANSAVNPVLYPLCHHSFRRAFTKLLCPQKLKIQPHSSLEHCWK

Ki [nM] | SMILES | Ki (membranes of histamine H3 receptor-expressing SK-N-MC cells, 0.8 nM {3H}-N-methylhistamine, 45 min at 25° C., […]) [nM]
2 | CC(C)N1CCN(C(=O)c2ccc(CN3CCSCC3)cc2)CC1 [Example 67, (4-Isopropyl-piperazin-1-yl)-(4-thiomorpholin-4-ylmethyl-phenyl)-methanone] | 
1 | CC(C)N1CCN(C(=O)c2ccc(CN3CCCCCC3)cc2)CC1 [Example 60, (4-Azepan-1-ylmethyl-phenyl)-(4-isopropyl-piperazin-1-yl)-methanone dihydrochloride] | 
1 | CC(C)N1CCN(C(=O)c2ccc(CN3CCCC3)cc2)CC1 [Example 61, (4-Isopropyl-piperazin-1-yl)-(4-pyrrolidin-1-ylmethyl-phenyl)-methanone dihydrochloride] | 
5 | CC(C)N1CCN(C(=O)c2ccc(CN(C)C)cc2)CC1 [Example 62, (4-Dimethylaminomethyl-phenyl)-(4-isopropyl-piperazin-1-yl)-methanone dihydrochloride] | 
3 | COCC(C)NCc1ccc(C(=O)N2CCN(C(C)C)CC2)cc1 (stereo not shown) [Example 72, (4-Isopropyl-piperazin-1-yl)-{4-[(2-methoxy-1-methyl-ethylamino)-methyl]-phenyl}-methanone] | 
1 | O=C(c1ccc(CN2CCCCC2)cc1)N1CCN(C2CCCCC2)CC1 [Example 66, (4-Cyclohexyl-piperazin-1-yl)-(4-piperidin-1-ylmethyl-phenyl)-methanone] | 
3 | CC(C)N1CCN(C(=O)c2ccc(CNCc3ccccc3)cc2)CC1 [Example 58, {4-(Benzylamino-methyl)-phenyl}-(4-isopropyl-piperazin-1-yl)-methanone dihydrochloride] | 
6 | CCN(CC)Cc1ccc(C(=O)N2CCN(C(C)C)CC2)cc1 [Example 57, (4-Diethylaminomethyl-phenyl)-(4-isopropyl-piperazin-1-yl)-methanone dihydrochloride] | 
23 | CC(C)N1CCN(C(=O)c2ccc(CNc3ccccc3)cc2)CC1 [Example 59, (4-Isopropyl-piperazin-1-yl)-(4-phenylaminomethyl-phenyl)-methanone dihydrochloride] | 
1 | CC(C)N1CCN(C(=O)c2ccc(CN3CCCC(C(F)(F)F)C3)cc2)CC1 (stereo not shown) [Example 56, (4-Isopropyl-piperazin-1-yl)-{4-(3-trifluoromethyl-piperidin-1-ylmethyl)-phenyl}-methanone dihydrochloride] | 
4 | CC(C)N1CCN(C(=O)c2ccc(CNc3ccccn3)cc2)CC1 [Example 71, (4-Isopropyl-piperazin-1-yl)-[4-(pyridin-2-ylaminomethyl)-phenyl]-methanone] | 
3 | CCN(CCOC)Cc1ccc(C(=O)N2CCN(C(C)C)CC2)cc1 [Example 69, (4-{[Ethyl-(2-methoxy-ethyl)-amino]-methyl}-phenyl)-(4-isopropyl-piperazin-1-yl)-methanone] | 

Further lines, the molecule ahead of its results:

SMILES | Ki [nM] | Ki (membranes of histamine H3 receptor-expressing SK-N-MC cells, 0.8 nM {3H}-N-methylhistamine, 45 min at 25° C., […]) [nM]
CC(C)N1CCN(C(=O)c2ccc(CNc3cc(C(F)(F)F)ccn3)cc2)CC1 [Example 44, (4-Isopropyl-piperazin-1-yl)-{4-{4-trifluoromethyl-pyridin-2-ylamino)-methyl}-phenyl}-methanone dihydrochloride] | 85 | 
CC(C)N1CCN(Cc2ccc(C(=O)N3CCN(C(C)C)CC3)cc2)CC1 [Example 35, (4-Isopropyl-piperazin-1-yl)-{4-(4-isopropyl-piperazin-1-ylmethyl)-phenyl}-methanone] |  | 18
CCCCCCC(C)N1CCN(C(=O)c2ccc(CN3CCCCC3)cc2)CC1 (stereo not shown) [Example 33, {4-(1-Methyl-heptyl)-piperazin-1-yl}-(4-piperidin-1-ylmethyl-phenyl)-methanone] | 52 | 
CCC(C)N1CCN(C(=O)c2ccc(CN3CCCC(C(F)(F)F)C3)cc2)CC1 (stereo not shown) [Example 50, (4-sec-Butyl-piperazin-1-yl)-{4-(3-trifluoromethyl-piperidin-1-ylmethyl)-phenyl}-methanone dihydrochloride] | 30 | 
CCC(CC)N1CCN(C(=O)c2ccc(CNCc3ccccc3)cc2)CC1 [Example 20, {4-(Benzylamino-methyl)-phenyl}-{4-(1-ethyl-propyl)-piperazin-1-yl}-methanone] | 2 | 
CCCCCCC(C)N1CCN(C(=O)c2ccc(CN3CCOCC3)cc2)CC1 (stereo not shown) [Example 32, {4-(1-Methyl-heptyl)-piperazin-1-yl}-(4-morpholin-4-ylmethyl-phenyl)-methanone] | 130 | 
CCC(C)N1CCN(C(=O)c2ccc(CN3CCOCC3)cc2)CC1 (stereo not shown) [Example 51, (4-sec-Butyl-piperazin-1-yl)-(4-morpholin-4-ylmethyl-phenyl)-methanone dihydrochloride] | 2 | 
CCC(CC)N1CCN(C(=O)c2ccc(CNc3ccc(C(F)(F)F)cc3)cc2)CC1 [Example 47, {4-(1-Ethyl-propyl)-piperazin-1-yl}-{-{4-{(4-trifluoromethyl-phenylamino)-methyl}-phenyl}-methanone dihydrochloride] | 81 | 
CCC(CC)N1CCN(C(=O)c2ccc(CN3CCCCCC3)cc2)CC1 [Example 21, (4-Azepan-1-ylmethyl-phenyl)-{4-(1-ethyl-propyl)-piperazin-1-yl}-methanone] | 2 | 
CC(C)N1CCN(C(=O)c2ccc(CN3CCOCC3)cc2)CC1 [Example 40] | 3 | 
CCC(CC)N1CCN(C(=O)c2ccc(CN(C)C)cc2)CC1 [Example 46, (4-Dimethylaminomethyl-phenyl)-{4-(1-ethyl-propyl)-piperazin-1-yl}-methanone dihydrochloride] | 2 | 
CC(C)N1CCN(C(=O)c2ccc(CNc3ccc(C(F)(F)F)cc3)cc2)CC1 [Example 34, (4-Isopropyl-piperazin-1-yl)-{4-{(4-trifluoromethyl-phenylamino)-methyl}-phenyl}-methanone] | 68 | 
CCCCN1CCN(C(=O)c2ccc(CN3CCCC(C(F)(F)F)C3)cc2)CC1 (stereo not shown) [Example 36, (4-Butyl-piperazin-1-yl)-{4-(3-trifluoromethyl-piperidin-1-ylmethyl)-phenyl}-methanone] | 12 | 
CCC(CC)N1CCN(C(=O)c2ccc(CN3CCCC3)cc2)CC1 [Example 26, {4-(1-Ethyl-propyl)-piperazin-1-yl}-(4-pyrrolidin-1-ylmethyl-phenyl)-methanone] | 0.9 | 
CCC(CC)N1CCN(C(=O)c2ccc(CN3CCCC(C(F)(F)F)C3)cc2)CC1 (stereo not shown) [Example 49, {4-(1-Ethyl-propyl)-piperazin-1-yl}-{4-(3-trifluoromethyl-piperidin-1-ylmethyl)-phenyl}-methanone dihydrochloride] | 4 | 
CCC(CC)N1CCN(C(=O)c2ccc(CN3CCC4CCCCC4C3)cc2)CC1 (stereo not shown) [Example 22, {4-(1-Ethyl-propyl)-piperazin-1-yl}-{4-(decahydro-isoguinolin-2-ylmethyl)-phenyl}-methanone] | 2 | 
CN1CCN(C(=O)c2ccc(CN3CCCCC3)cc2)CC1 [Example 54, (4-Methyl-piperazin-1-yl)-(4-piperidin-1-ylmethyl-phenyl)-methanone dihydrochloride] | 24 | 
CN1CCN(C(=O)c2ccc(CN3CCOCC3)cc2)CC1 [Example 43, (4-Methyl-piperazin-1-yl)-(4-morpholin-4-ylmethyl-phenyl)-methanone dihydrochloride] | 22 | 
CCC(CC)N1CCN(C(=O)c2ccc(CNc3ccccc3)cc2)CC1 [Example 45, {4-(1-Ethyl-propyl)-piperazin-1-yl}-(4-phenylaminomethyl-phenyl)-methanone dihydrochloride] | 54 | 
CCC(C)N1CCN(C(=O)c2ccc(CN(C)C)cc2)CC1 (stereo not shown) [Example 24, (4-sec-Butyl-piperazin-1-yl)-(4-dimethylaminomethyl-phenyl)-methanone] | 1.5 | 
CCC(CC)N1CCN(C(=O)c2ccc(CN3CCCCC3)cc2)CC1 [Example 27, {4-(1-Ethyl-propyl)-piperazin-1-yl}-(4-piperidin-1-ylmethyl-phenyl)-methanone] | 0.4 | 
CCC(C)N1CCN(C(=O)c2ccc(CNc3ccccc3)cc2)CC1 (stereo not shown) [Example 29, (4-sec-Butyl-piperazin-1-yl)-(4-phenylaminomethyl-phenyl)-methanone] | 38 | 
CCC(C)N1CCN(C(=O)c2ccc(CN3CCCC3)cc2)CC1 (stereo not shown) [Example 25, (4-sec-Butyl-piperazin-1-yl)-(4-pyrrolidin-1-ylmethyl-phenyl)-methanone] | 1 | 
CC(C)N1CCN(C(=O)c2ccc(CNc3ccc(C(F)(F)F)cn3)cc2)CC1 [Example 55, (4-Isopropyl-piperazin-1-yl)-{4-{(5-trifluoromethyl-pyridin-2-ylamino)-methyl}-phenyl}-methanone dihydrochloride] | 49 | 
CC(C)N1CCN(C(=O)c2cccc(CN3CCCCC3)c2)CC1 [Example 39, (4-Isopropyl-piperazin-1-yl)-(3-piperidin-1-ylmethyl-phenyl)-methanone] | 35 | 

— patent US7414047B2, “Piperazinyl and diazapanyl benzamides and benzthioamides” (Janssen Pharmaceutica N.V., priority 2002, dated 2008)
